Measured values reported in PubChem BioAssay AID1117319 (Southern Research Institute, 2015).
Results filed as inconclusive are left out.

Molecular target: Virion infectivity factor (Human immunodeficiency virus type 1 group M subtype B (isolate BH10)) + Virion infectivity factor (Human immunodeficiency virus type 1 group M subtype B (isolate BRU/LAI)) + Virion infectivity factor (Human immunodeficiency virus type 1 group M subtype B (isolate PCV12)) + Virion infectivity factor (Human immunodeficiency virus type 1 group M subtype B (isolate HXB2)) + DNA dC->dU-editing enzyme APOBEC-3G (Homo sapiens) (UniProt P69720+P69721+P69722+P69723+Q9HC16)
Assay: HIV-1 Vif–A3G interaction blockers – biochemical, TR-FRET, GST-Vif 1-94, biotin-A3G peptide, dose response retest, primary screen (AID 1117319);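 also: Vif residues 1-94 fused to GST binding biotinylated APOBEC3G peptide 110-148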
Settings: TR-FRET GST-Vif / biotin-A3G peptide binding

SMILES	IC50 [µM]
CCc1cc(=O)n2[nH]c(C)c(-c3ccccc3OC)c2n1	4.38
CN(C(=O)COC(=O)c1cc(-c2ccco2)nc2ccccc12)C1CCS(=O)(=O)C1 (stereo not given)	1.44
Cc1ccc(C)c(/C(O)=C2/C(=O)C(=O)N(CCN3CCOCC3)C2c2ccco2)c1 (stereo not given)	18.1
CC(=O)N1CCN(c2ccc(NCc3ccc4c(c3)OCO4)cc2)CC1	3.78
COCOC1CCC2C3CCC4=CC(=O)CCC4=C3C=CC12C (stereo not given)	23.2
O=C(CCS(=O)(=O)c1ccc(Br)cc1)N1CCN(c2ccc(F)cc2)CC1	52.8
Cc1cc(C(=O)CCl)c(C)n1-c1c(C)n(C)n(-c2ccccc2)c1=O	42.8
CCOc1ccc(NCC2CCOC(C)(C)C2)cc1 (stereo not given)	9.47
CCOC(=O)CSc1nc2c(sc(=S)n2-c2ccccc2OC)c(=O)n1Cc1ccco1	27.2
C=CCn1c(Sc2nc(C)cs2)nc2c1c(=O)[nH]c(=O)n2C	94.2
Cc1c(O)cc2c(c1O)C(=O)CC(c1ccc(O)cc1)O2 (stereo not given)	2.68
COc1ccc(-c2cc(C(=O)N/N=C/c3ccc(OC)c(COCC(F)(F)C(F)F)c3)c3ccccc3n2)c(OC)c1	26.2
CCC(c1nnnn1C(C)(C)CC)N(CCCO)Cc1cc2cc(C)cc(C)c2[nH]c1=O (stereo not given)	0.49
O=C1CC=C2C3CC4N(CCC45c4cc(O)c(O)cc4N1C25)CC3=CCBr (stereo not given)	0.7
O=C(/C=C/c1cccs1)Nc1ccc(Br)cn1	10.2
Clc1ccc(/C=N/c2c(-c3ccco3)nc3ccccn23)cc1	14.1
C=CC(=O)N1C/C(=C/c2ccc(F)cc2)C(=O)/C(=C\c2ccc(F)cc2)C1	7.41
O=C(O)CC(C(=O)O)N1C(=O)/C(=C/C=C/c2ccco2)SC1=S (stereo not given)	0.96
CN1CCN(c2ccc(N)cc2)CC1	15.6
Cc1cc(C)cc(NC(=O)CSc2nc3c(c(=O)n2C)SC(C)C3)c1 (stereo not given)	21.8
CC(C)(C)C(=O)OCc1nc(-c2ccc(O)c(O)c2)cs1	17.1
Cc1ccc(N/N=C/c2c(C)c(C#N)c(=O)n(C)c2O)cc1C	91.3
COC(=O)c1ccccc1NC(=O)C1CCCC1	0.55

SMILES	IC50 [µM]
COC1=C(Br)C(=O)c2nc(C)ccc2C1=O	13.6
S=c1nc(-c2ccc(Br)cc2)oc2c1CCCC2	61.7
O=C(O)CCC(=O)N(Cc1cccs1)Cc1cccs1	79.6
N#CC1=C(N)OC2=C(CCC/C2=C/c2ccoc2)C1c1ccoc1 (stereo not given)	2.64
Oc1cccc(C=NCc2ccccc2)c1O	1.9
CC1OC(OCC2OC(Oc3c(-c4ccc(O)cc4)oc4cc(O)cc(O)c4c3=O)C(O)C(O)C2O)C(O)C(O)C1O (stereo not given)	11.8
O=C(O)c1ccc(-n2cccc2/C=C2/NC(=O)N(c3cccc(Cl)c3)C2=O)cc1	1.71
CS(=O)(=O)N1CCCC(C(=O)NCCCN2CCC(Cc3ccccc3)CC2)C1 (stereo not given)	84.4
Cc1ccc(N2C(=O)/C(=C\c3ccco3)SC2=S)cc1	7.72
Cc1ccccc1NS(=O)(=O)c1ccc2[nH]cc(C(=O)N(C)Cc3ccco3)c(=O)c2c1	56.8
CN1CCN(C2=C(Cl)C(=O)c3ccccc3C2=O)CC1	4.42
O=C(N/N=C/c1cccnc1)c1cc(O)c(O)c(O)c1	21.7
CC1=NN(c2cccc(C(=O)O)c2)C(=O)/C1=C\C=C\c1ccco1	2.89
COC/C=C/C1=CC2=CC(=O)C(C)(OC(=O)c3cnc4ccccc4n3)C(=O)C2=CN1c1ccccc1 (stereo not given)	2.74
O=C(/C=C/c1ccco1)NC(=S)Nc1ccccc1N1CCOCC1	11.5
C=CCN1C(=O)/C(=C\c2ccco2)C(C(=O)OC)=C1C	14.1
Cc1ccc(-n2nc(C)c(C3C(C#N)=C(N)Oc4c3c(=O)oc3ccccc43)c2Cl)cc1 (stereo not given)	11.1
CNc1ccc(Br)cc(C(=O)/C=C/c2cccc(OC)c2OC)c1=O	4.1
Cc1onc(-c2ccccc2Cl)c1C(=O)N1CCN(c2cccc(Cl)c2)CC1	95.4
COC(=O)Cc1cc(=O)n(-c2nc3ccccc3[nH]2)[nH]1	21.6
CC1(OC(=O)CCc2ccccc2)C(=O)C=C2C=C(c3ccsc3)OC=C2C1=O (stereo not given)	4.73
Cc1cccc(C)c1NC(=O)c1ccc(-n2cnnn2)cc1	35.8
